# Like-named read-outs stand apart in the source and are kept apart here.
# Legend:
# [1] = amide bond
# [2] = amide bond, 18-membered ring
# [3] = the molecule shown is the open-chain precursor; amide bond; 18-membered ring
# [4] = amide bond; 18-membered ring; HATU/NMM; THF/DMF 10:1; 13.1 mM
compound,measurement,setting,value
CCc1ccc2c(C[C@@H]3NC(=O)[C@@H](C[C@H]4CC[C@@H](O)CC4)NC(=O)[C@@H]4C[C@@H](OC(C)(C)C)CN4C(=O)[C@@H](NC(=O)[C@H](Cc4ccccc4)N(CC(=O)OC(C)(C)C)C(=O)OC(C)(C)C)CCCNC(=O)[C@H](CCCNC(=N)NS(=O)(=O)c4c(C)c(C)c5c(c4C)CC(C)(C)O5)NC3=O)cn(C(=O)OC(C)(C)C)c2c1,"ring closure, yield of all isomers",[1]; from CCc1ccc2c(C[C@H](NC(=O)[C@@H](C[C@H]3CC[C@@H](O)CC3)NC(=O)[C@@H]3C[C@@H](OC(C)(C)C)CN3)C(=O)N[C@@H](CCCNC(=N)NS(=O)(=O)c3c(C)c(C)c4c(c3C)CC(C)(C)O4)C(=O)NCCC[C@H](NC(=O)[C@H](Cc3ccccc3)N(CC(=O)OC(C)(C)C)C(=O)OC(C)(C)C)C(=O)O)cn(C(=O)OC(C)(C)C)c2c1,42%
Cc1c(C)c(S(=O)(=O)NC(=N)NCCC[C@@H]2NC(=O)[C@H](Cc3c[nH]c4ccccc34)NC(=O)[C@@H](C[C@H]3CC[C@@H](O)CC3)NC(=O)[C@@H]3C[C@H](NC(=O)OC(C)(C)C)CN3C(=O)[C@@H](NC(=O)[C@H](Cc3ccccc3)N(CC(=O)OC(C)(C)C)C(=O)OC(C)(C)C)CCCNC2=O)c(C)c2c1OC(C)(C)C2,"ring closure, yield of all isomers",[1]; from Cc1c(C)c(S(=O)(=O)NC(=N)NCCC[C@H](NC(=O)[C@H](Cc2c[nH]c3ccccc23)NC(=O)[C@@H](C[C@H]2CC[C@@H](O)CC2)NC(=O)[C@@H]2C[C@H](NC(=O)OC(C)(C)C)CN2)C(=O)NCCC[C@H](NC(=O)[C@H](Cc2ccccc2)N(CC(=O)OC(C)(C)C)C(=O)OC(C)(C)C)C(=O)O)c(C)c2c1OC(C)(C)C2,100%
Cc1c(C)c(S(=O)(=O)NC(=N)NCCC[C@@H]2NC(=O)[C@H](Cc3cn(C(=O)OC(C)(C)C)c4ccccc34)NC(=O)[C@@H](C[C@H]3CC[C@@H](O)CC3)NC(=O)[C@@H]3C[C@@H](OC(C)(C)C)CN3C(=O)[C@@H](NC(=O)OC(C)(C)C)CCCNC2=O)c(C)c2c1OC(C)(C)C2,"ring closure, yield of all isomers","[1]; from Cc1c(C)c(S(=O)(=O)NC(=N)NCCC[C@H](NC(=O)[C@H](Cc2cn(C(=O)OC(C)(C)C)c3ccccc23)NC(=O)[C@@H](C[C@H]2CC[C@@H](O)CC2)NC(=O)[C@@H]2C[C@@H](OC(C)(C)C)CN2)C(=O)NCCC[C@H](NC(=O)OC(C)(C)C)C(=O)O)c(C)c2c1OC(C)(C)C2, HATU, THF, 13.1 mM, 25.0 °C, 0.25 h",95.3%
Cc1c(C)c(S(=O)(=O)NC(=N)NCCC[C@@H]2NC(=O)[C@H](Cc3cn(C(=O)OC(C)(C)C)c4ccccc34)NC(=O)[C@@H](C[C@H]3CC[C@@H](O)CC3)NC(=O)[C@@H]3C[C@@H](OC(C)(C)C)CN3C(=O)[C@@H](NC(=O)[C@H](Cc3ccccc3)N(CC(=O)OC(C)(C)C)C(=O)OC(C)(C)C)CCCNC2=O)c(C)c2c1OC(C)(C)C2,"ring closure, yield of all isomers","[1]; from Cc1c(C)c(S(=O)(=O)NC(=N)NCCC[C@H](NC(=O)[C@H](Cc2cn(C(=O)OC(C)(C)C)c3ccccc23)NC(=O)[C@@H](C[C@H]2CC[C@@H](O)CC2)NC(=O)[C@@H]2C[C@@H](OC(C)(C)C)CN2)C(=O)NCCC[C@H](NC(=O)[C@H](Cc2ccccc2)N(CC(=O)OC(C)(C)C)C(=O)OC(C)(C)C)C(=O)O)c(C)c2c1OC(C)(C)C2, HATU, THF, 14.1 mM, 25.0 °C, 0.5 h",87%
Cc1c(C)c(S(=O)(=O)NC(=N)NCCC[C@@H]2NC(=O)[C@H](Cc3cn(C(=O)OC(C)(C)C)c4ccccc34)NC(=O)[C@@H](C[C@H]3CC[C@@H](O)CC3)NC(=O)[C@@H]3C[C@@H](OCC(=O)OC(C)(C)C)CN3C(=O)[C@@H](NC(=O)[C@H](Cc3ccccc3)N(CC(=O)OC(C)(C)C)C(=O)OC(C)(C)C)CCCNC2=O)c(C)c2c1OC(C)(C)C2,"ring closure, yield of all isomers",[1]; from Cc1c(C)c(S(=O)(=O)NC(=N)NCCC[C@H](NC(=O)[C@H](Cc2cn(C(=O)OC(C)(C)C)c3ccccc23)NC(=O)[C@@H](C[C@H]2CC[C@@H](O)CC2)NC(=O)[C@@H]2C[C@@H](OCC(=O)OC(C)(C)C)CN2)C(=O)NCCC[C@H](NC(=O)[C@H](Cc2ccccc2)N(CC(=O)OC(C)(C)C)C(=O)OC(C)(C)C)C(=O)O)c(C)c2c1OC(C)(C)C2,83%
Cc1c(C)c(S(=O)(=O)NC(=N)NCCC[C@@H]2NC(=O)[C@H](Cc3cn(C(=O)OC(C)(C)C)c4ncccc34)NC(=O)[C@@H](C[C@H]3CC[C@@H](O)CC3)NC(=O)[C@@H]3C[C@@H](OC(C)(C)C)CN3C(=O)[C@@H](NC(=O)[C@H](Cc3ccccc3)N(CC(=O)OC(C)(C)C)C(=O)OC(C)(C)C)CCCNC2=O)c(C)c2c1OC(C)(C)C2,"ring closure, yield of all isomers",[1]; from Cc1c(C)c(S(=O)(=O)NC(=N)NCCC[C@H](NC(=O)[C@H](Cc2cn(C(=O)OC(C)(C)C)c3ncccc23)NC(=O)[C@@H](C[C@H]2CC[C@@H](O)CC2)NC(=O)[C@@H]2C[C@@H](OC(C)(C)C)CN2)C(=O)NCCC[C@H](NC(=O)[C@H](Cc2ccccc2)N(CC(=O)OC(C)(C)C)C(=O)OC(C)(C)C)C(=O)O)c(C)c2c1OC(C)(C)C2,93.4%
"((31R,6S,9S,15S,19R,20aS)-6-((1H-indol-3-yl)methyl)-15-((S)-2-((carboxymethyl)amino)-3-phenylpropanamido)-9-(3-guanidinopropyl)-3-(((1s,4S)-4-hydroxycyclohexyl)methyl)-1,4,7,10,16-pentaoxoicosahydropyrrolo[1,2-a][1,4,7,10,13]pentaazacyclooctadecin-19-yl)glycine","ring closure, yield after HPLC",[2]; with chain assembly,19.4%
"((S)-1-(((3R,6S,9S,15S,19R,20aS)-6-((1H-indol-3-yl)methyl)-19-acetamido-9-(3-guanidinopropyl)-3-(((1s,4S)-4-hydroxycyclohexyl)methyl)-1,4,7,10,16-pentaoxoicosahydropyrrolo[1,2-a][1,4,7,10,13]pentaazacyclooctadecin-15-yl)amino)-1-oxo-3-phenylpropan-2-yl)glycine","ring closure, yield after HPLC",[2]; 2 steps,20%
"((S)-1-(((3R,6S,9S,15S,19R,20aS)-6-((1H-indol-3-yl)methyl)-19-amino-9-(3-guanidinopropyl)-3-(((1s,4S)-4-hydroxycyclohexyl)methyl)-1,4,7,10,16-pentaoxoicosahydropyrrolo[1,2-a][1,4,7,10,13]pentaazacyclooctadecin-15-yl)amino)-1-oxo-3-phenylpropan-2-yl)glycine","ring closure, yield after HPLC",[2]; 2 steps,6.6%
"((S)-1-(((3R,6S,9S,15S,19R,20aS)-9-(3-guanidinopropyl)-19-hydroxy-3-(((1s,4S)-4-hydroxycyclohexyl)methyl)-6-((5-methoxy-1H-indol-3-yl)methyl)-1,4,7,10,16-pentaoxoicosahydropyrrolo[1,2-a][1,4,7,10,13]pentaazacyclooctadecin-15-yl)amino)-1-oxo-3-phenylpropan-2-yl)glycine","ring closure, yield after HPLC",[2]; 2 steps,6%
"((S)-1-(((3R,6S,9S,15S,19R,20aS)-9-(3-guanidinopropyl)-19-hydroxy-3-(((1s,4S)-4-hydroxycyclohexyl)methyl)-6-((6-methoxy-1H-indol-3-yl)methyl)-1,4,7,10,16-pentaoxoicosahydropyrrolo[1,2-a][1,4,7,10,13]pentaazacyclooctadecin-15-yl)amino)-1-oxo-3-phenylpropan-2-yl)glycine","ring closure, yield after HPLC",[2]; with chain assembly,2.3%
"((S)-1-(((3R,6S,9S,15S,19S,20aS)-6-((1H-indol-3-yl)methyl)-19-acetamido-9-(3-guanidinopropyl)-3-(((1s,4S)-4-hydroxycyclohexyl)methyl)-1,4,7,10,16-pentaoxoicosahydropyrrolo[1,2-a][1,4,7,10,13]pentaazacyclooctadecin-15-yl)amino)-1-oxo-3-phenylpropan-2-yl)glycine","ring closure, yield after HPLC",[2]; 2 steps,30%
"((S)-1-(((31R,6S,9S,15S,19R,20aS)-6-((1H-indazol-3-yl)methyl)-9-(3-guanidinopropyl)-19-hydroxy-3-(((1s,4S)-4-hydroxycyclohexyl)methyl)-1,4,7,10,16-pentaoxoicosahydropyrrolo[1,2-a][1,4,7,10,13]pentaazacyclooctadecin-15-yl)amino)-1-oxo-3-phenylpropan-2-yl)glycine","ring closure, yield after HPLC",[2]; 2 steps,35%
"H-Hyp(tBu)-dAla(cis-4-hydroxycyclohexyl)-Trp(Boc,6-Et)-Arg(Pbf)-(Nδ)Orn(Nα-[Boc-N(CH2CO2tBu)-Phe])-OH","ring closure, isolated yield",[3],42%
"tert-butyl-3-(((3R,6S,9S,15S,19R,20aS)-19-(tert-butoxy)-15-((tert-butoxycarbonyl)amino)-3-(((1s,4S)-4-hydroxycyclohexyl)methyl)-1,4,7,10,16-pentaoxo-9-(3-(3-((2,2,4,6,7-pentamethyl-2,3-dihydrobenzofuran-5-yl)sulfonyl)guanidino)propyl)icosahydropyrrolo[1,2-a][1,4,7,10,13]pentaazacyclooctadecin-6-yl)methyl)-1H-indole-1-carboxylate","ring closure, crude yield",[4],95.3%
